Test results taken from US8101760B2, “Glucocorticoid receptor modulator and methods of use” (Eli Lilly and Company, priority 2007, dated 2012).
pEC50, pKi: −log10 of the molar value.

Columns and labels:
[1] = molecular target: T1, human MR (mineralocorticoid receptor) (Homo sapiens, UniProt P08235); assay: Nuclear hormone receptor binding assay, MR
T1 construct: expressed in transfected cells; host or cells: HEK293 (lysate, '293-MR lysate')
T1 sequence (P08235 1-984): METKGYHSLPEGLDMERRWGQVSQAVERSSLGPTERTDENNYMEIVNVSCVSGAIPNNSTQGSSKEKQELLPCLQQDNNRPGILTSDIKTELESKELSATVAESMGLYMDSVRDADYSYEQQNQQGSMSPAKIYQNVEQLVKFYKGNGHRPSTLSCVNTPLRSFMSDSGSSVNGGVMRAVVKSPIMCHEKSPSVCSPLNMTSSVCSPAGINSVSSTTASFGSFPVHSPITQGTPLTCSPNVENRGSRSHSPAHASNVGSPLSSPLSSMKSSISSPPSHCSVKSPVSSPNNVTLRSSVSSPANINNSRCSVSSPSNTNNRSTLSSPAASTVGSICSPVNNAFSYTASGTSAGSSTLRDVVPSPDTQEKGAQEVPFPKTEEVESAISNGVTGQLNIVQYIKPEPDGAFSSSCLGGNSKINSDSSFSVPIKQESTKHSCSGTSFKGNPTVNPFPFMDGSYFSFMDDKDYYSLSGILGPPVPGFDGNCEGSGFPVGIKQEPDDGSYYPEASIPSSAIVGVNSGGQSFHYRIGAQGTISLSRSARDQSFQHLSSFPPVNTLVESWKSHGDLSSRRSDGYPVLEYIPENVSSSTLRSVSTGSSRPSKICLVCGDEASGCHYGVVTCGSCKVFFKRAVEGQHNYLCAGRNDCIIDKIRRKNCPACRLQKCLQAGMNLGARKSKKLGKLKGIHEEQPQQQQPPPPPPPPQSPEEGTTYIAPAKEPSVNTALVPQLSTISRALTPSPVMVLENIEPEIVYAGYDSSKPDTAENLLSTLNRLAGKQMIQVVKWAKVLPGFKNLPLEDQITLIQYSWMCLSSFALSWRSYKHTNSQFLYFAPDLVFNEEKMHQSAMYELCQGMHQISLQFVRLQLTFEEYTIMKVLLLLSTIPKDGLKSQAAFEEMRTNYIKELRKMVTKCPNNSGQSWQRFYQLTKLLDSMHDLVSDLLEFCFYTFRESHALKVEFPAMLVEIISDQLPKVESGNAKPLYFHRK
Procedure: Cell lysates from human embryonic kidney HEK293 cells overexpressing human GR (glucocorticoid receptor), AR (androgen receptor), MR (mineralocorticoid receptor), or PR (progesterone receptor) are used for receptor-ligand competition binding assays to determine Ki values.
Briefly, steroid receptor competition binding assays are run in a buffer containing 20 mM Hepes buffer (pH=7.6), 0.2 mM EDTA, 75 mM NaCl, 1.5 mM MgCl2, 20% glycerol, 20 mM sodium molybdate, 0.2 mM DTT (dithiothreitol), 20 μg/mL aprotinin and 20 μg/mL leupeptin. Typically, steroid receptor binding assays include radio-labeled ligands, such as 0.3 nM [^3H]-dexamethasone for GR binding, 0.36 nM [^3H]-methyltrienolone for AR binding, 0.25 nM [^3H]-aldosterone for MR binding, and 0.29 nM [^3H]-methyltrienolone for PR binding, and either 20 μg 293-GR lysate, 22 μg 293-AR lysate, 20 μg 293-MR lysate or 40 μg 293-PR lysate per well. Assays are typically run in 96-well format. Competing test compounds are added at various concentrations ranging from about 0.01 nM to 10 μM. Non-specific binding is determined in the presence of 500 nM dexamethasone for GR binding, 500 nM aldosterone for MR binding, or 500 nM methyltrienolone for AR and PR binding. […] After an incubation of 2 hours, plates are read in a Wallac Microbeta counter. […]

[2] = Metabolic profiling of plasma after in vivo administration, dog
[3] = Metabolic profiling of plasma after in vivo administration, rat
[4] = molecular target: T2, human mineralocorticoid receptor (MR) (Homo sapiens, UniProt P08235); assay: Nuclear hormone receptor functional modulation assay (GRE-luciferase, HEK293), MR; format: cell-based
T2 construct: expressed in transfected cells; host or cells: HEK293, transient transfection (Fugene), CMV promoter plasmid
T2 sequence (P08235 1-984): T1 sequence (P08235 1-984)
Description: The solvents, reagents, and ligands employed in the functional assay are readily available from commercial sources, or can be prepared by one of ordinary skill in the art.
Human embryonic kidney HEK293 cells are transfected with steroid hormone receptor and reporter gene plasmids using Fugene™ (Roche Diganostics) transfection reagent. Briefly, the reporter plasmid containing two copies of probasin ARE (androgen response element 5′GGTTCTTGGAGTACT3′ (SEQ ID NO:1)) and TK(thymidine kinase) promoter upstream of the luciferase reporter cDNA, is transfected into HEK293 cells with a plasmid constitutively expressing human androgen receptor (AR) using viral CMV(cytomegalovirus) promoter. The reporter plasmid containing two copies of GRE (glucocorticoid response element 5′TGTACAGGATGTTCT′3 (SEQ ID NO:2)) and TK promoter upstream of the luciferase reporter cDNA is transfected with a plasmid constitutively expressing either human glucocorticoid receptor (GR), human mineralocorticoid receptor (MR), or human progesterone receptor (PR) using viral CMV promoter. Cells are transfected in T150 cm flasks in DMEM media with 5% charcoal-stripped Fetal Bovine Serum (FBS). […] In the antagonist mode for the assays, low concentrations of agonist for each respective receptor are added to the media (0.25 nM dexamethasone for GR, 0.3 nM of methyltrienolone for AR, 0.05 nM of promegestone for PR and 0.05 nM aldosterone for MR), and the ability of test compound to antagonize the agonist response is determined. After 24 hours of incubation with test compounds, cells are lysed and luciferase activity is determined using standard techniques.
Data are fitted to a four parameter-fit logistic curve fit to determine EC50 values. […] IC50 values may be determined similarly using antagonist mode assay data. Percent inhibitions may also be determined relative to the response in the presence of agonist alone, as described above.

pKi ([1]; HEK293 cell lysate expressing human MR, [3H]-aldosterone, mean of 5 determinations): 6.93 | greater affinity for GR relative to MR ([1]; binding selectivity GR vs MR): ≥ 30 fold | circulating entity in plasma [2]: major circulating entity | circulating entity in plasma [3]: major circulating entity | pEC50 ([4]; agonist mode, activating transcription): < 5.00 | modulation of gene expression mediated by MR ([4]; functional modulation, in words): only limited activity | MR % Eff. ([4]; percent efficacy at 10 μM relative to 30 nM aldosterone, mean of 3): 8.5%
SMILES: CC/C(=C1\c2ccc(Cl)cc2OCc2ncccc21)c1cccc(NS(C)(=O)=O)c1 [Compound (I), (E)-N-{3-[1-(8-Chloro-11H-10-oxa-1-aza-dibenzo[a,d]cyclohepten-5-ylidene)-propyl]-phenyl}-methanesulfonamide]
